According to ChEMBL document CHEMBL5291721, “A preclinical secondary pharmacology resource illuminates target-adverse drug reaction associations of marketed drugs” (Nat Commun, 2023):

Key:
[1] = target: T1, Progesterone receptor (Homo sapiens, UniProt P06401)
T1 sequence (P06401 whole entry): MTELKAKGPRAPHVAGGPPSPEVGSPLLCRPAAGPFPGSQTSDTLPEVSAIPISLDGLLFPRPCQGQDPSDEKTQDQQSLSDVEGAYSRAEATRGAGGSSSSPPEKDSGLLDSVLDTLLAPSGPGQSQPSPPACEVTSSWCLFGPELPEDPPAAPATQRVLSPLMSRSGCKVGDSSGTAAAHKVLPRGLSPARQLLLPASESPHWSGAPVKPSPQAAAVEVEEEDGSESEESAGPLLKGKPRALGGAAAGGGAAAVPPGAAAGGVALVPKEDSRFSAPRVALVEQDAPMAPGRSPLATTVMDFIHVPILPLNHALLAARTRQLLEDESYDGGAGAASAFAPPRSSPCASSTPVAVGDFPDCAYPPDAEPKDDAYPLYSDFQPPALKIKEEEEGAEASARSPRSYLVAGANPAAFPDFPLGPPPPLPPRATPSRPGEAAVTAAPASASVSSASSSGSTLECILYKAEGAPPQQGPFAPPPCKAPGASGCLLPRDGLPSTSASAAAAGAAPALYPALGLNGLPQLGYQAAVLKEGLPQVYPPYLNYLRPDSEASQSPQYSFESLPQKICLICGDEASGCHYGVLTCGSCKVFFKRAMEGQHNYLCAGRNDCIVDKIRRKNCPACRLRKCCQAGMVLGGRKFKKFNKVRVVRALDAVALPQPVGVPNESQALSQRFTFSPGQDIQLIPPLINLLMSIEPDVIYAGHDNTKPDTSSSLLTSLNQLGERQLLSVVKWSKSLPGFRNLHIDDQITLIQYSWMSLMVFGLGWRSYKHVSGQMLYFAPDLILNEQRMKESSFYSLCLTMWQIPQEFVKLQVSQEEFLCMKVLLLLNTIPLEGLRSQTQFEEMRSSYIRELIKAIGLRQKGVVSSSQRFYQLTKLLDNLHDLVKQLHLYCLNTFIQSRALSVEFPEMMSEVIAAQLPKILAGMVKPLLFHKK

[2] = target: T2, Alpha-1A adrenergic receptor (Homo sapiens, UniProt P35348); type: functional, cell-based
T2 sequence (P35348 whole entry): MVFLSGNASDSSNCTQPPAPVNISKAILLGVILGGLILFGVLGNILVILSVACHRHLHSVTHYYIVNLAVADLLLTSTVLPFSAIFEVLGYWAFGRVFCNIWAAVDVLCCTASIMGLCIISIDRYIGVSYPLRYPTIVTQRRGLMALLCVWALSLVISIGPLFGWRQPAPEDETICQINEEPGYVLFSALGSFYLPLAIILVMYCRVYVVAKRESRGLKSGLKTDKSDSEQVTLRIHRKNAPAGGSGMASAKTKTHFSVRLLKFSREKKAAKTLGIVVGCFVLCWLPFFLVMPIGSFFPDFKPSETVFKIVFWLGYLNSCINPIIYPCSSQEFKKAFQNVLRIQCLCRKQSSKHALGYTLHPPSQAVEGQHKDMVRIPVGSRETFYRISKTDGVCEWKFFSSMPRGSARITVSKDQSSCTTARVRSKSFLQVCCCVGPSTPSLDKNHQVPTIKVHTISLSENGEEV

[3] = target: T2, Alpha-1A adrenergic receptor; type: functional, cell-based; remark: listed apart in the source
[4] = target: T3, Thromboxane A2 receptor (Homo sapiens, UniProt P21731); type: functional, cell-based
T3 sequence (P21731 whole entry): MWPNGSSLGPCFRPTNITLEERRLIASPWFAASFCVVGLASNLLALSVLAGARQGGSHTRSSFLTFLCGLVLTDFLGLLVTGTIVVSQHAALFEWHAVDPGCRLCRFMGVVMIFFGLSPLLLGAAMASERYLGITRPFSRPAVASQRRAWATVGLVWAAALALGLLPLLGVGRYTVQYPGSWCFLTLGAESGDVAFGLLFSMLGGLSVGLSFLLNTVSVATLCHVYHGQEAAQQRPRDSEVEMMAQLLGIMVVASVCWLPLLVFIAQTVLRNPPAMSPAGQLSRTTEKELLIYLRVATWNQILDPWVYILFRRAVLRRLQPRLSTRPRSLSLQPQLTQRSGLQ

[5] = target: 3',5'-cyclic-AMP phosphodiesterase 4A (Homo sapiens, UniProt P27815); type: functional
[6] = target: Sodium-dependent noradrenaline transporter (Homo sapiens, UniProt P23975)
[7] = target: Prostaglandin G/H synthase 1 (Homo sapiens, UniProt P23219); type: functional
[8] = target: D(3) dopamine receptor (Homo sapiens, UniProt P35462)
[9] = target: Acetylcholinesterase (Homo sapiens, UniProt P22303); type: functional
[10] = target: T4, Adenosine receptor A3 (Homo sapiens, UniProt P0DMS8)
T4 sequence (P0DMS8 whole entry): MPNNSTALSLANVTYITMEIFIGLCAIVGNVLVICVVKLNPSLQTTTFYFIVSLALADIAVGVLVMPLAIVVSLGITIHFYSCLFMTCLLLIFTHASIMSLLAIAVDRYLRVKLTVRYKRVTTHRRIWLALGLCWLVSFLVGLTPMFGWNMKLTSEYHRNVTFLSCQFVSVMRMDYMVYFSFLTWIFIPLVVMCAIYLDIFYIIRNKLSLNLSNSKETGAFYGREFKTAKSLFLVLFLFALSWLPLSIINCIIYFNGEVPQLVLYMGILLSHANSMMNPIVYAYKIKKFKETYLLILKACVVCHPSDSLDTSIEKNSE

[11] = target: Sodium-dependent dopamine transporter (Homo sapiens, UniProt Q01959)
[12] = target: T3, Thromboxane A2 receptor; type: functional, cell-based; remark: listed apart in the source
Also: assay procedure not described here.

Chain of Acetylcholinesterase (P22303 whole entry): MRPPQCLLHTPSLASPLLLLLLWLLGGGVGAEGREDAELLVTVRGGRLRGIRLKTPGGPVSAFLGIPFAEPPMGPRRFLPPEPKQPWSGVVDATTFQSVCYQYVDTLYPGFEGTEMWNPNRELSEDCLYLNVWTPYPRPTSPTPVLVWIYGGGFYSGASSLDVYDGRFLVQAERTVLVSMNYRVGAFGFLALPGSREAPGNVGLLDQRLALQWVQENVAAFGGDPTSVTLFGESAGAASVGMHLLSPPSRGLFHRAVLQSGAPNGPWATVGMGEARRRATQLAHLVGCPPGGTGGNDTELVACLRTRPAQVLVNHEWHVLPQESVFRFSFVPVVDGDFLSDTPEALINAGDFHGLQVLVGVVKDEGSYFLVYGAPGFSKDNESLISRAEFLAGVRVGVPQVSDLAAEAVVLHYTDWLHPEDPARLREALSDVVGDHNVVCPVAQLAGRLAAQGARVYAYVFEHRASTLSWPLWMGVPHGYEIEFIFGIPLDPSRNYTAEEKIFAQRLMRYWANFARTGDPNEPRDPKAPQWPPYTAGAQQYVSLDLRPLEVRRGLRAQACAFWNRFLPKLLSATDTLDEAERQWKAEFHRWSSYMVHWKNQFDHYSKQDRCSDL
Chain of Sodium-dependent noradrenaline transporter (P23975 whole entry): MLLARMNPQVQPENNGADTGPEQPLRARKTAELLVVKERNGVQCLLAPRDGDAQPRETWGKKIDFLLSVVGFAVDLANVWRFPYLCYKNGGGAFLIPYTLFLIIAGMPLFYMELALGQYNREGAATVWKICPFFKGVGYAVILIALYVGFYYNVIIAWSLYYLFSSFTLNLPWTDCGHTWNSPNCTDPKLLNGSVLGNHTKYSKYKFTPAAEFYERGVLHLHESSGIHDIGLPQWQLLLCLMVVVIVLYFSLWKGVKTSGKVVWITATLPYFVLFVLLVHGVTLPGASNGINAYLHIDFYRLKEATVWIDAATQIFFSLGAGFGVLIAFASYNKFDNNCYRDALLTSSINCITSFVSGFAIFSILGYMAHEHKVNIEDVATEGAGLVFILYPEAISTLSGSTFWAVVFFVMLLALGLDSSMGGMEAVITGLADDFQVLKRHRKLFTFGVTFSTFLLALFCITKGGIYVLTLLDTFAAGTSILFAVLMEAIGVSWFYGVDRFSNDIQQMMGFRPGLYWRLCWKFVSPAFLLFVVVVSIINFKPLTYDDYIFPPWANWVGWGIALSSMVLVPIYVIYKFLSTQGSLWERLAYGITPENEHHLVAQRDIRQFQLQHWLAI
Chain of 3',5'-cyclic-AMP phosphodiesterase 4A (P27815 whole entry): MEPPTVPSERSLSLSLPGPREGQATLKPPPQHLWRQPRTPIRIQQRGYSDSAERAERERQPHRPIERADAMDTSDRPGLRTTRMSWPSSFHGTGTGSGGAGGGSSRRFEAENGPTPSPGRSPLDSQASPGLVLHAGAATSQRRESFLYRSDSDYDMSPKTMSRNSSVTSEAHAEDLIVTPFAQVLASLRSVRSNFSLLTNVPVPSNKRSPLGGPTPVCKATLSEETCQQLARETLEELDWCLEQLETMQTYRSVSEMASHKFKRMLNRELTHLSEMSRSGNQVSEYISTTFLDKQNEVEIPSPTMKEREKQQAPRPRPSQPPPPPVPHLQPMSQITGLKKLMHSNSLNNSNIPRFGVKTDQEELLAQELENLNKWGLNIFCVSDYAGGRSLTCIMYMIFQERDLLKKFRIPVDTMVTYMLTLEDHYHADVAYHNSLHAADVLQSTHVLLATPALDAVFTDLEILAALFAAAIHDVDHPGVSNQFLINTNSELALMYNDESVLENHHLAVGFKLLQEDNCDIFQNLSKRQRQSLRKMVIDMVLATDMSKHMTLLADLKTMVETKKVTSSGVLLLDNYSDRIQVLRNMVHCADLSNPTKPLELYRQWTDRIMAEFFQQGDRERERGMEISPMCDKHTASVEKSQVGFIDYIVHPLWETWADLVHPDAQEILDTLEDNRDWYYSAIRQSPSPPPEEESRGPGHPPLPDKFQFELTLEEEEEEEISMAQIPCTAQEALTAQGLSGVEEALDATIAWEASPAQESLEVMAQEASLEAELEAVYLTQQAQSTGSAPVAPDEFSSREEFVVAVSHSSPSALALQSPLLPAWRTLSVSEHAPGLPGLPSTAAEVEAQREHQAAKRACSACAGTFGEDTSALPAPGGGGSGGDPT
Chain of Sodium-dependent dopamine transporter (Q01959 whole entry): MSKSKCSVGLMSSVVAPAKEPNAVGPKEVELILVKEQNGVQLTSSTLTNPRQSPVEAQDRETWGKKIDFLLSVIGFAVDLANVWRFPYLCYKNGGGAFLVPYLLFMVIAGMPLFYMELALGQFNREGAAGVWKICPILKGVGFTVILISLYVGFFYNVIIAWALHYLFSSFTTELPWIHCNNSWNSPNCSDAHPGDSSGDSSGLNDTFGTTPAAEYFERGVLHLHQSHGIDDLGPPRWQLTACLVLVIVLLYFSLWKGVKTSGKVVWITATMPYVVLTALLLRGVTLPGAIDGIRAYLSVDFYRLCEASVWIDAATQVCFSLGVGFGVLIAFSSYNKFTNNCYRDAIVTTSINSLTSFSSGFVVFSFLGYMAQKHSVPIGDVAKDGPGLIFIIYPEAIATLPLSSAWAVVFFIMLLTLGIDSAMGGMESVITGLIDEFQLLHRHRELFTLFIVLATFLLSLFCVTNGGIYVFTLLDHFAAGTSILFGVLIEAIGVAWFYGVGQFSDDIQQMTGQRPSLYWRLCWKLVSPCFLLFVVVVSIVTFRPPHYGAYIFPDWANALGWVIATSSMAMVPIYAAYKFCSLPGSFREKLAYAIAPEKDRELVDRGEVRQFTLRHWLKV
Chain of Prostaglandin G/H synthase 1 (P23219 whole entry): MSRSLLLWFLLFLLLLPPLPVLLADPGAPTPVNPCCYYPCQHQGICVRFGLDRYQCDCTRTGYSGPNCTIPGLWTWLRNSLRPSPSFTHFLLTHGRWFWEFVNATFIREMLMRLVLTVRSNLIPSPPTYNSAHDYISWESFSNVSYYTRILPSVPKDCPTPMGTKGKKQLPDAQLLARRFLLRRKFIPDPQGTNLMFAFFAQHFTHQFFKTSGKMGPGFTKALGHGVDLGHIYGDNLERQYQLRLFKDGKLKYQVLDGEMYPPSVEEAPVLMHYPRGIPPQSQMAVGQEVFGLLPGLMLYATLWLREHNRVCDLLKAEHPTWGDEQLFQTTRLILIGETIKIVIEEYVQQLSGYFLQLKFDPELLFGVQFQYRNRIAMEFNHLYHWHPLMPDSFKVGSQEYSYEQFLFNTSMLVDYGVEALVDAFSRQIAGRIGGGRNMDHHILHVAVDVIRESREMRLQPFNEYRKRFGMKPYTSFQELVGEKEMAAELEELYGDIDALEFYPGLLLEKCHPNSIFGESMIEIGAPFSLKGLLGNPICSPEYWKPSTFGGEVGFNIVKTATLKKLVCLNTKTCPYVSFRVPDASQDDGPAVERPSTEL
Chain of D(3) dopamine receptor (P35462 whole entry): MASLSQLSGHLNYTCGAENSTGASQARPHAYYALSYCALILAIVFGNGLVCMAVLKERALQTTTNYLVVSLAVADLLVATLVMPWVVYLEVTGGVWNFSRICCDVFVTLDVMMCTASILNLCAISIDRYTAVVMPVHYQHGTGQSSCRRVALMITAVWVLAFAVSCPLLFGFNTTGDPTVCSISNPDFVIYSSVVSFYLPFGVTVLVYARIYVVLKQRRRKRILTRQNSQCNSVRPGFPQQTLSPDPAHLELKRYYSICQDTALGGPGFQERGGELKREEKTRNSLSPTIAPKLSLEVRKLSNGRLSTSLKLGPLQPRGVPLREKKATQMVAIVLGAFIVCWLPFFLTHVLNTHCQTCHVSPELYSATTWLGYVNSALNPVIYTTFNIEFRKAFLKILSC

Row | SMILES | AC50 [1] [µM] | AC50 [2] [µM] | AC50 [3] [µM] | AC50 [4] [µM] | AC50 [5] [µM] | AC50 [6] [µM] | AC50 [7] [µM] | AC50 [8] [µM] | AC50 [9] [µM] | AC50 [10] [µM] | AC50 [11] [µM] | AC50 [12] [µM]
1 | O=C1CCC(N2C(=O)c3ccccc3C2=O)C(=O)N1 (stereo unspecified) [THALIDOMIDE] | > 30 | > 30 | > 30 | > 30 | > 30 | > 30 | > 30 | > 30 | > 30 | > 30 | > 30 | > 30
2 | C[C@@H]1O[C@@H](OC[C@H]2O[C@@H](Oc3c(-c4ccc(OCCO)c(OCCO)c4)oc4cc(OCCO)cc(O)c4c3=O)[C@H](O)[C@@H](O)[C@@H]2O)[C@H](O)[C@H](O)[C@H]1O [TROXERUTIN] | > 30 | > 30 | > 30 | > 30 | > 30 | > 30 | > 30 | > 30 | > 30 | 7.52 | > 30 | > 30
3 | COc1cc2c(cc1OC)[C@H]1C[C@@H](OC(=O)[C@@H](N)C(C)C)[C@H](CC(C)C)CN1CC2 [VALBENAZINE] | > 30 | > 30 | > 30 | 13.9 | > 30 | > 30 | 5.44 | > 30 | > 30 | > 30 | > 30 | > 30
